Laboratory results from US20050053931A1, “Method for the diagnosis and therapy of renal cell carcinoma” (priority 2001, published 2005).
Residues, ends and D or L forms follow the SMILES beside them. *: point of attachment. Cbz = O=C(OCc1ccccc1)*

Experiments:
[1] = tested on: mycNbk expression in DU145 prostate carcinoma cells; experiment: Conditional expression of mycNbk after Ad-TreNbk-tTA infection (Western blot); assay type: cell-based, human; details: 24 h after infection with Ad-TreNbk-tTA at 25 MOI
Text: For regulable expression of the pro-apoptotic gene Nbk in human cells, an adenoviral vector based on the adenovirus serotype 5 backbone was constructed. In this construct, the E3 region was replaced by the expression cassette for the tTA and the E1 region was replaced by an expression cassette for Nbk. To allow for convenient detection of the exogenous Nbk, a myc tag was inserted at the N-terminus of the human Nbk cDNA. Constitutive expression of the tTA was achieved by putting the tTA under the control of a CMV promoter. In the absence of tetracyclin or doxycyclin the tTA fusion protein binds via the TetR portion to the TRE in the PhCMV* promoter and activates via the VP16AD portion the transcription of the mycNbk. In the presence of tetra- or doxycyclin Nbk expression is repressed and switched off.
The recombinant adenovirus Ad-TreNbk-tTA (FIG. 7A) was employed for expression of the myc tagged Nbk (mycNbk) in a doxycyclin dependent manner. […] Apart from DU145, Nbk could be strongly expressed by the use of this adenoviral vector 24 h after transduction in a panel of other carcinomas or non-epithelial tumor cells, i.e. sarcoma, glioma and other mesenchymal cell types.
Apoptosis was determined by the use of a modified cell cycle analysis technique that relies on the measurement of cellular DNA content on the single cell level by flow cytometry. […]

glioma cells = details: upon adenoviral Nbk gene transfer with Ad-TreNbk-tTA; cited from earlier work

| SMILES | doxycyclin concentration at which Nbk expression is almost completely suppressed [1] [ng/mL] | Nbk expression levels (glioma cells) | sensitivity for Nbk-induced apoptosis (glioma cells) |
| --- | --- | --- | --- |
| C[C@H]1c2cccc(O)c2C(O)=C2C(=O)[C@]3(O)C(O)=C(C(N)=O)C(=O)[C@@H](N(C)C)[C@@H]3[C@@H](O)[C@@H]21 [doxycyclin] | ≥ 10 |  |  |
| CC(C)C[C@@H](C=O)NC(=O)[C@H](CC(C)C)NC(=O)[C@H](CC(C)C)NC(=O)OCc1ccccc1 [MG132] (Cbz-Leu-Leu-Leu-aldehyde) |  | enhanced Nbk expression levels | increased sensitivity for Nbk-induced apoptosis |
